By IC50 is commonly meant the midpoint of a concentration-inhibition curve. One may read the ED50 as the dose that gives a 50% effect, or the effect in half of the subjects.

Consider 21 compounds from ChEMBL document CHEMBL3217463, “Design, synthesis and biological evaluation of -lactam hydroxamate based TACE inhibitors” (Medchemcomm, 2011).

For one assay, the system named is Blood. Nature of the assay: Antiinflammatory activity in human whole blood assessed as inhibition of LPS-induced TNFalpha secretion by ELISA. In kind it is functional, tissue-based. (In an ELISA, binding on a coated surface is turned into a signal by an enzyme label.)
The target of assay [1] is T1, Disintegrin and metalloproteinase domain-containing protein 17 (Homo sapiens, UniProt P78536). Nature of the assay: Inhibition of human catalytic domain of TACE assessed as inhibit the cleavage of the substrate by fluorescence-based FRET assay.
Assay [2] concerns the target T2, Disintegrin and metalloproteinase domain-containing protein 10 (Homo sapiens, UniProt O14672).
T2 sequence (O14672 whole entry): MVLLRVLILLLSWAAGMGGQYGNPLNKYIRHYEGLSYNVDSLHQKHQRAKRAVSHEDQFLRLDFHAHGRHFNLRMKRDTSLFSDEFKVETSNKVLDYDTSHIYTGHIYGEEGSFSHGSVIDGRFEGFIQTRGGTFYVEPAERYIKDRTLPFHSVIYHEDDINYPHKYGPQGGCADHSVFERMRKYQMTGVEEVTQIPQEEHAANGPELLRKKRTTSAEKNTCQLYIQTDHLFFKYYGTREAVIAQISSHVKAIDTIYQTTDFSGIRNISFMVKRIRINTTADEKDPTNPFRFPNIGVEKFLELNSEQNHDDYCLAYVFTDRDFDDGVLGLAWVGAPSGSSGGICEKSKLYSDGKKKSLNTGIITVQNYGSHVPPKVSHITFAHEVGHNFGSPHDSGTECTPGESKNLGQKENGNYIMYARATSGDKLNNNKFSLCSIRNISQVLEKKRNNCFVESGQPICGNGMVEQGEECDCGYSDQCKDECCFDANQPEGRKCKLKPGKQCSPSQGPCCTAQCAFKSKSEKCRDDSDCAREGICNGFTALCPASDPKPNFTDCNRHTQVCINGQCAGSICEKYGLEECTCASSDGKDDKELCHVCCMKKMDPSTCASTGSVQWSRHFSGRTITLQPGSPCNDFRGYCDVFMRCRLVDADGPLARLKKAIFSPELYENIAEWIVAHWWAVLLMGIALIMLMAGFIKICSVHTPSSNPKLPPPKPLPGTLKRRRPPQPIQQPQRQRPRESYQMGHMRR
Nature of the assay: Inhibition of ADAM10 (unknown origin) using fluorescent substrate by fluorescence-based FRET assay.

The target of a further assay is T3, Interstitial collagenase (Homo sapiens, UniProt P03956).
T3 sequence (P03956 whole entry): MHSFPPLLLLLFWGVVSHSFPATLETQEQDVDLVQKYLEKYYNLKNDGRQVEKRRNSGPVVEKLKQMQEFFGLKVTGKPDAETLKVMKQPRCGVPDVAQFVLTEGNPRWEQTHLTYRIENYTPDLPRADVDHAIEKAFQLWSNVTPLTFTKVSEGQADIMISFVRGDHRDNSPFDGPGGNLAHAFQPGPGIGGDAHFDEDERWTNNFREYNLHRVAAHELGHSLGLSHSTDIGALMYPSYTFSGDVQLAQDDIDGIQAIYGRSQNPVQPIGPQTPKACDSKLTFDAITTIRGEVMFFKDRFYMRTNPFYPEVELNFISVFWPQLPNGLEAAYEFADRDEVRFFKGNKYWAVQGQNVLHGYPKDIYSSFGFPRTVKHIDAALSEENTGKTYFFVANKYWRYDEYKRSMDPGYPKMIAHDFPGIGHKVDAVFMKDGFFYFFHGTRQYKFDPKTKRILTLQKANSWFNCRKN
The assay is described as follows: Inhibition of MMP1 (unknown origin) by fluorescence-based FRET assay.

For assay [3], the target named is 72 kDa type IV collagenase (Homo sapiens, UniProt P08253). Nature of the assay: Inhibition of MMP2 (unknown origin) by fluorescence-based FRET assay.
A further assay deals with Stromelysin-1 (Homo sapiens, UniProt P08254). Nature of the assay: Inhibition of MMP3 (unknown origin) by fluorescence-based FRET assay.
In a further assay the target is T4, Matrilysin (Homo sapiens, UniProt P09237).
T4 sequence (P09237 whole entry): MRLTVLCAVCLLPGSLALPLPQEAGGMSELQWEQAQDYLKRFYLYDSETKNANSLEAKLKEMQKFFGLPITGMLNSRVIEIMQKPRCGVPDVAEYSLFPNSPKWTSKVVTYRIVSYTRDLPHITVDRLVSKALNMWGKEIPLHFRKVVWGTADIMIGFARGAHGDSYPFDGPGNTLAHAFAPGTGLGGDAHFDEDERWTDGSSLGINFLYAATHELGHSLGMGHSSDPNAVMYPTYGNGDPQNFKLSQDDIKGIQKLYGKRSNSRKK
The assay is described as follows: Inhibition of MMP7 (unknown origin) by fluorescence-based FRET assay.

The target of the next assay is Neutrophil collagenase (Homo sapiens, UniProt P22894). Nature of the assay: Inhibition of MMP8 (unknown origin) by fluorescence-based FRET assay.
Assay [4] concerns the target Matrix metalloproteinase-9 (Homo sapiens, UniProt P14780). The assay is described as follows: Inhibition of MMP9 (unknown origin) by fluorescence-based FRET assay.
Another assay deals with Collagenase 3 (Homo sapiens, UniProt P45452). The assay is described as follows: Inhibition of MMP13 (unknown origin) by fluorescence-based FRET assay.
Assay [5] concerns the target Matrix metalloproteinase-14 (Homo sapiens, UniProt P50281). The assay is described as follows: Inhibition of MMP14 (unknown origin) by fluorescence-based FRET assay.
Assay [6] deals with T1, Disintegrin and metalloproteinase domain-containing protein 17. Nature of the assay: Ratio of IC50 for human catalytic domain of TACE to IC50 for ADAM10 (unknown origin).
The target is the same in assay [7]. Nature of the assay: Ratio of IC50 for human catalytic domain of TACE to IC50 for MMP1 (unknown origin).
Assay [8] has the same target. The assay is described as follows: Ratio of IC50 for human catalytic domain of TACE to IC50 for MMP2 (unknown origin).
For assay [9] the target is unchanged. The assay is described as follows: Ratio of IC50 for human catalytic domain of TACE to IC50 for MMP3 (unknown origin).
Assay [10] shares this target. Nature of the assay: Ratio of IC50 for human catalytic domain of TACE to IC50 for MMP7 (unknown origin).
For assay [11] the target is unchanged. Nature of the assay: Ratio of IC50 for human catalytic domain of TACE to IC50 for MMP8 (unknown origin).
The target is the same in assay [12]. Nature of the assay: Ratio of IC50 for human catalytic domain of TACE to IC50 for MMP9 (unknown origin).
The target is the same in assay [13]. Nature of the assay: Ratio of IC50 for human catalytic domain of TACE to IC50 for MMP13 (unknown origin).
For assay [14] the target is unchanged. Nature of the assay: Ratio of IC50 for human catalytic domain of TACE to IC50 for MMP14 (unknown origin).
The subject of the next assay is Mus musculus. The assay is described as follows: Antiinflammatory activity in po dosed Swiss Albino mouse assessed as inhibition of LPS-induced TNFalpha secretion in blood treated 0.5 hrs before LPS and measured after 1 hr of LPS stimulus by ELISA. It is filed as functional.

T1 sequence (P78536 whole entry, the tested form may be a part): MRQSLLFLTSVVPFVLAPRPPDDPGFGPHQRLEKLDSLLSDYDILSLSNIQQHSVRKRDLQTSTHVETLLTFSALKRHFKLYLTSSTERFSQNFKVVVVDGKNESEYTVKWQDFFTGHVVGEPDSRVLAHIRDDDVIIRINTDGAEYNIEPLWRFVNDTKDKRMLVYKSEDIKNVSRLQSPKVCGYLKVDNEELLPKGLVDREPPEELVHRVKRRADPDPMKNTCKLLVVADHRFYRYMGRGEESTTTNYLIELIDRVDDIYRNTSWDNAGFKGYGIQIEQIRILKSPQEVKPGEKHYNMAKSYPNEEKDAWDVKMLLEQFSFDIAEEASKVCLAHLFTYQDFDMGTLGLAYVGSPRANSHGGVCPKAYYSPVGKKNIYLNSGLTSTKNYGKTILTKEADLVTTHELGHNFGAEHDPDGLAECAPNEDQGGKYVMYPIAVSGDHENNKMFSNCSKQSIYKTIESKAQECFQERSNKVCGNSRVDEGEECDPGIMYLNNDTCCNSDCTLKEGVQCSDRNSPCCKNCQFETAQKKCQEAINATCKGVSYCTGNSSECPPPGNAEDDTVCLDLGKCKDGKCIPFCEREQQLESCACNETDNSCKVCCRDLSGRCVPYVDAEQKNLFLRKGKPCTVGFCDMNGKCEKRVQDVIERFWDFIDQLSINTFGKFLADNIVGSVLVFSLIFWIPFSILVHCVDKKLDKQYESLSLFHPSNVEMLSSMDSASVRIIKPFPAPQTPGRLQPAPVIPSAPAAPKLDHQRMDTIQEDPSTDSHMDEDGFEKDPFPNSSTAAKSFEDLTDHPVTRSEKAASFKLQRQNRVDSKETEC
Stromelysin-1, sequence (P08254 whole entry): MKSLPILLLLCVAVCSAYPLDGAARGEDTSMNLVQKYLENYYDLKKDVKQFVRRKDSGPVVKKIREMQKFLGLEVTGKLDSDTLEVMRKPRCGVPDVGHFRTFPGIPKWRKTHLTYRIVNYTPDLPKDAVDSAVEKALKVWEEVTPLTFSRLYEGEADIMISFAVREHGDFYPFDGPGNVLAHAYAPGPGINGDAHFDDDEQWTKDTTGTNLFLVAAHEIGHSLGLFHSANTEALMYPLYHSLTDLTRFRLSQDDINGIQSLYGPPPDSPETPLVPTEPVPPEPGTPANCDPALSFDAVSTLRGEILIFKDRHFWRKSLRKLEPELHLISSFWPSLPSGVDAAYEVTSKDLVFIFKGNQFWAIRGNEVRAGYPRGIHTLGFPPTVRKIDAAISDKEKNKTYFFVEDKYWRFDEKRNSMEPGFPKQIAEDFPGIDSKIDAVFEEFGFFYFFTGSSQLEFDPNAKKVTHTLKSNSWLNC
Neutrophil collagenase, sequence (P22894 whole entry): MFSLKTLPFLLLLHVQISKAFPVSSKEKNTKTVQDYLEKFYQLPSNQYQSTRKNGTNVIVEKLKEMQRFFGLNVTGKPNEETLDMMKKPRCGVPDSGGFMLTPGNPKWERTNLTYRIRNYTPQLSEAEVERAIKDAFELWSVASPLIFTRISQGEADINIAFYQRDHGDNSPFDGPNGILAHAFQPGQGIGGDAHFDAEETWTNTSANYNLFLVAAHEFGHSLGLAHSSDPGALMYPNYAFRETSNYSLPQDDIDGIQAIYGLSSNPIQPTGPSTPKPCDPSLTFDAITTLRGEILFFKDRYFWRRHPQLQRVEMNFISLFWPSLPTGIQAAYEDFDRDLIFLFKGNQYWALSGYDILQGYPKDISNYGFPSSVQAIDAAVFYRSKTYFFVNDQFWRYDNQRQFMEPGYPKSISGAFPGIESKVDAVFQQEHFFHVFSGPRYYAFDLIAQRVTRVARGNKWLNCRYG
72 kDa type IV collagenase, sequence (P08253 whole entry): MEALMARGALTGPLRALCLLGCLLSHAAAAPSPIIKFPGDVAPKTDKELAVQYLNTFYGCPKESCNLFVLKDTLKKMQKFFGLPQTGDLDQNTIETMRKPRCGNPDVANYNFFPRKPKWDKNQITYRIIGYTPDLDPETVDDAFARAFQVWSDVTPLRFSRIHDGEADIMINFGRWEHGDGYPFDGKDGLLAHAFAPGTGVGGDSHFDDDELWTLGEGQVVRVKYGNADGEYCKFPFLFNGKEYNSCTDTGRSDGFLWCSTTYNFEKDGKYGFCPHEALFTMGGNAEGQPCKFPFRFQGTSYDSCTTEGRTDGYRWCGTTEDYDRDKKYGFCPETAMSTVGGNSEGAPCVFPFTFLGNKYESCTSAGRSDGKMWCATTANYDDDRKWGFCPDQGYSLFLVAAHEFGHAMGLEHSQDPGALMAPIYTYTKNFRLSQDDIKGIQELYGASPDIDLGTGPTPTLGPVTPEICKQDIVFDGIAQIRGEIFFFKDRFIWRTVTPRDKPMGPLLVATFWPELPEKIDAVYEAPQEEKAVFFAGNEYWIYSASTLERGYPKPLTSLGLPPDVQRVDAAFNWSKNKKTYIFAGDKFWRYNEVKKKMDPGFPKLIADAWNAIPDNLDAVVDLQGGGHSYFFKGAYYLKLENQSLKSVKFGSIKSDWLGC
Matrix metalloproteinase-9, sequence (P14780 whole entry): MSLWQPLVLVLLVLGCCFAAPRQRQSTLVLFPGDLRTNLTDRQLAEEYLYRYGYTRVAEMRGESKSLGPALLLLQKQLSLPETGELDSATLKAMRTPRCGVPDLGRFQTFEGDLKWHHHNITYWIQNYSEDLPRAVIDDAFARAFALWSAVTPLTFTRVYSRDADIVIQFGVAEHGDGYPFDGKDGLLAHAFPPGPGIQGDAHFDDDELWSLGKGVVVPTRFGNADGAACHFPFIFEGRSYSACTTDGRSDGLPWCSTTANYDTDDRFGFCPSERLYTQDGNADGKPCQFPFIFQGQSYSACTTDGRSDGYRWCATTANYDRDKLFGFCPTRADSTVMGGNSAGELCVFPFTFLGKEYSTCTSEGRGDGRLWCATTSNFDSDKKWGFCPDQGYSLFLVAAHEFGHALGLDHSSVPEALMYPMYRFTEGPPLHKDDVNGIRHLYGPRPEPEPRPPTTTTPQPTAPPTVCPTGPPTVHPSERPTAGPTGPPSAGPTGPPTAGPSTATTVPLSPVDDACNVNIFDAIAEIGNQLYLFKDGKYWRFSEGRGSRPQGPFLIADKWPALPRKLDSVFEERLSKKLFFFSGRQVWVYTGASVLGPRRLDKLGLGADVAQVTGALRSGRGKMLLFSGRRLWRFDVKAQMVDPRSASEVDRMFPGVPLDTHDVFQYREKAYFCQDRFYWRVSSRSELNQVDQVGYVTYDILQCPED

In the case of `CC(C)C[C@H](C(=O)NO)N1CC[C@@](N)(c2ccc(OCc3cc(C4CC4)nc4ccccc34)cc2)C1=O`, in the assay on Blood, the IC50 came out at 170 nM.

In the case of `COc1cc(COc2ccc([C@]3(N)CCN([C@H](CC(C)C)C(=O)NO)C3=O)cc2)c2ccccc2n1`, the concentration for half-maximal inhibition (IC50) in the assay with Blood was determined as 401 nM.

With `CC(C)C[C@H](C(=O)NO)N1CC[C@@](N)(c2ccc(OCc3cc(C4CCCCC4)nc4ccccc34)cc2)C1=O`, the half-inhibitory concentration (IC50) with Blood was 177 nM.

As for `CC(C)C[C@H](C(=O)NO)N1CC[C@@](N)(c2ccc(OCc3cc(-c4ccccc4)nc4ccccc34)cc2)C1=O`, the IC50 in the assay on Blood was found to be 3060 nM.

Regarding `Cc1cccc(-c2cc(COc3ccc([C@]4(N)CCN([C@H](CC(C)C)C(=O)NO)C4=O)cc3)c3ccccc3n2)c1`, the half-maximal inhibitory concentration (IC50) in the assay on Blood amounted to 3880 nM.

For `COCc1cc(COc2ccc([C@]3(N)CCN([C@H](CC(C)C)C(=O)NO)C3=O)cc2)c2ccccc2n1`, the IC50 in the assay on Blood is 11 nM; in assay [1], 2.1 nM; in assay [2], 1210 nM; against Interstitial collagenase, 1130 nM; in assay [3] it was 1170 nM; on Stromelysin-1, 1080 nM. Further, the IC50 came to 1240 nM at Matrilysin; 1010 nM against Neutrophil collagenase; 1160 nM in [4]; 1230 nM against Collagenase 3; 1070 nM in assay [5]. The Ratio IC50 in assay [6], in assay [7], in [8], in assay [9], in assay [10] and in [11] was more than 500 each time. The Ratio IC50 in assay [12], in assay [13] and in [14] was more than 500 throughout. Further, the ED50 in the assay with Mus musculus amounted to 7.2 mg/kg.

For `COc1ccc(-c2cc(COc3ccc([C@]4(N)CCN([C@H](CC(C)C)C(=O)NO)C4=O)cc3)c3ccccc3n2)cc1`, the half-maximal inhibitory concentration (IC50) in the assay with Blood came out at 250 nM.

`COCc1cc(COc2ccc([C@]3(N)CCN([C@H](CC(C)C)C(=O)O)C3=O)cc2)c2ccccc2n1`: in the assay with Blood, the half-inhibitory concentration (IC50) is 3230 nM.

Take `CC(C)C[C@H](C(=O)NO)N1CC[C@@](N)(c2ccc(OCc3cc(-c4ccc(OCc5ccccc5)cc4)nc4ccccc34)cc2)C1=O`: the IC50 in the assay on Blood was 4000 nM.

On to `CC(C)C[C@H](C(=O)NO)N1CC[C@@](N)(c2ccc(OCc3cc(COC(C)C)nc4ccccc34)cc2)C1=O`, for which the half-maximal inhibitory concentration (IC50) with Blood is 123 nM.

With `CC(C)C[C@H](C(=O)NO)N1CC[C@@](N)(c2ccc(OCc3cc(Cl)nc4ccccc34)cc2)C1=O`, in the assay on Blood, the half-inhibitory concentration (IC50) was determined as 450 nM.

In the case of `CCc1cc(COc2ccc([C@]3(N)CCN([C@H](CC(C)C)C(=O)NO)C3=O)cc2)c2ccccc2n1`, the IC50 in the assay on Blood is 111 nM.

Take `CC(C)C[C@H](C(=O)NO)N1CC[C@@](N)(c2ccc(OCc3cc(-c4ccc(F)cc4)nc4ccccc34)cc2)C1=O`: the IC50 with Blood is 290 nM.

As for `COCc1cc(COc2ccc([C@]3(NC(=O)OC(C)(C)C)CCN([C@H](CC(C)C)C(=O)NO)C3=O)cc2)c2ccccc2n1`, in the assay on Blood, the IC50 worked out at 3050 nM.

For the compound `CC(C)C[C@H](C(=O)NO)N1CC[C@@](N)(c2ccc(OCc3cc(C(F)(F)F)nc4ccccc34)cc2)C1=O`, in the assay with Blood, the half-maximal inhibitory concentration (IC50) turned out to be 470 nM.

Consider `CC(C)C[C@H](C(=O)NO)N1CC[C@@](N)(c2ccc(OCc3cc(-c4ccc(Cl)cc4)nc4ccccc34)cc2)C1=O`, for which the IC50 in the assay on Blood was determined as 286 nM.

Turning to `CC(C)C[C@H](C(=O)NO)N1CC[C@@](N)(c2ccc(OCc3cc(CCOC(C)C)nc4ccccc34)cc2)C1=O`, the IC50 in the assay with Blood came to 130 nM.

`Cc1ccc(-c2cc(COc3ccc([C@]4(N)CCN([C@H](CC(C)C)C(=O)NO)C4=O)cc3)c3ccccc3n2)cc1`: in the assay on Blood, the half-inhibitory concentration (IC50) was determined as 2900 nM.

`COCc1cc(COc2ccc([C@]3(N)CCN([C@H](CC(C)C)C(=O)OC)C3=O)cc2)c2ccccc2n1`: in the assay on Blood, the IC50 is 3000 nM.

For `CC(C)C[C@H](C(=O)NO)N1CC[C@@](N)(c2ccc(OCc3cc(C(C)C)nc4ccccc34)cc2)C1=O`, the IC50 in the assay on Blood came to 140 nM.

In the case of `COCc1cc(COc2ccc([C@]3(N)CCN([C@H](C)C(=O)NO)C3=O)cc2)c2ccccc2n1`, the 50% inhibitory concentration (IC50) in the assay on Blood came to 98 nM.
